Data published in patent publication US7056903B2, “Carboxylic acid derivatives as IP antagonists” (Syntex (U.S.A.) LLC, priority 2000, dated 2006).

melting point	SMILES
78.3 to 79.9 °C	O=C(NC(Cc1ccccc1)C(=O)O)OCc1ccc(COCc2ccccc2)cc1 (stereo not drawn) [Compound 90, 2-(4-benzyloxymethyl-benzyloxycarbonylamino)-3-phenyl-propionic acid]
163 to 167 °C	O=C(N[C@H](Cc1ccccc1)C(=O)O)OCc1cc2cc(-c3cc(F)cc(F)c3)ccc2o1 [Compound 99, (R)-2-[5-(3,5-difluoro-phenyl)-benzofuran-2-ylmethoxycarbonylamino]-3-phenyl-propionic acid]
159 to 160 °C	O=C(N[C@H](Cc1ccccc1)C(=O)O)OCc1cc2cc(-c3cccc(F)c3F)ccc2o1 [Compound 100, (R)-2-[5-(2,3-difluoro-phenyl)-benzofuran-2-ylmethoxycarbonylamino]-3-phenyl-propionic acid]
191 to 192 °C	O=C(N[C@H](Cc1ccccc1)C(=O)O)OCc1cc2cc(-c3cccc4c3OCO4)ccc2o1 [Compound 102, (R)-2-(5-benzo[1,3]dioxol-4-yl-benzofuran-2-ylmethoxycarbonylamino)-3-phenyl-propionic acid]
89.4 to 92.6 °C	O=C(N[C@H](Cc1ccccc1)C(=O)O)OCc1cc2cc(-c3cc(F)ccc3F)ccc2o1 [Compound 103, (R)-2-[5-(2,5-difluoro-phenyl)-benzofuran-2-ylmethoxycarbonylamino]-3-phenyl-propionic acid]
98.9 to 101.7 °C	O=C(N[C@H](Cc1ccccc1)C(=O)O)OCc1cc2cc(-c3ccc(F)c(F)c3)ccc2o1 [Compound 104, (R)-2-[5-(3,4-Difluoro-phenyl)-benzofuran-2-ylmethoxycarbonylamino]-3-phenyl-propionic acid]
151 to 157 °C	O=C(N[C@H](Cc1ccc(Cl)cc1)C(=O)O)OCc1cc2cc(-c3ccccc3)ccc2o1 [Compound 106, (R)-3-(4-chloro-phenyl)-2-(5-phenyl-benzofuran-2-ylmethoxycarbonylamino)-propionic acid]
136 to 140 °C	O=C(N[C@H](Cc1ccc(Br)cc1)C(=O)O)OCc1cc2cc(-c3ccccc3)ccc2o1 [Compound 107, (R)-3-(4-bromo-phenyl)-2-(5-phenyl-benzofuran-2-ylmethoxycarbonylamino)-propionic acid]
141.4 to 142.3 °C	O=C(N[C@H](Cc1cccc(F)c1)C(=O)O)OCc1cc2cc(-c3ccccc3)ccc2o1 [Compound 108, (R)-3-(3-fluoro-phenyl)-2-(5-phenyl-benzofuran-2-ylmethoxycarbonylamino)-propionic acid]
168 to 169.8 °C	O=C(O)CC(NC(=O)OCc1cc2cc(-c3ccccc3)ccc2o1)c1ccccc1 (stereo not drawn) [Compound 109, 3-phenyl-3-(5-phenyl-benzofuran-2-ylmethoxycarbonylamino)-propionic acid]
168 to 169.8 °C	O=C(O)CC(Cc1ccccc1)NC(=O)OCc1cc2cc(-c3ccccc3)ccc2o1 (stereo not drawn) [Compound 110, 4-phenyl-3-(5-phenyl-benzofuran-2-ylmethoxycarbonylamino)-butyric acid]
148.3 to 157 °C	O=C(N[C@@H](Cc1ccc(F)cc1)C(=O)O)OCc1cc2cc(-c3ccc(F)cc3)ccc2o1 [Compound 113, (S)-3-(4-fluoro-phenyl)-2-[5-(4-fluoro-phenyl)-benzofuran-2-ylmethoxycarbonylamino]-propionic acid]
105.2 to 110.2 °C	O=C(N[C@H](Cc1ccc(F)cc1)C(=O)O)OCc1cc2cc(-c3ccccc3F)ccc2o1 [Compound 114, (R)-3-(4-fluoro-phenyl)-2-[5-(2-fluoro-phenyl)-benzofuran-2-ylmethoxycarbonylamino]-propionic acid]
86.7 to 100.1 °C	O=C(N[C@H](Cc1ccc(F)cc1)C(=O)O)OCc1cc2cc(-c3ccccc3Cl)ccc2o1 [Compound 115, (R)-2-[5-(2-chloro-phenyl)-benzofuran-2-ylmethoxycarbonylamino]-3-(4-fluoro-phenyl)-propionic acid]
132 to 134.5 °C	O=C(N[C@H](Cc1ccc(F)cc1)C(=O)O)OCc1cc2cc(-c3ccc4c(c3)OCO4)ccc2o1 [Compound 116, (R)-2-(5-benzo[1,3]dioxol-5-yl-benzofuran-2-ylmethoxycarbonylamino)-3-(4-fluoro-phenyl)-propionic acid]
114.3 to 124.6 °C	CC(C)(C)c1ccc(-c2ccc3oc(COC(=O)N[C@H](Cc4ccc(F)cc4)C(=O)O)cc3c2)cc1 [Compound 117, (R)-2-[5-(4-tert-butyl-phenyl)-benzofuran-2-ylmethoxycarbonylamino]-3-(4-fluoro-phenyl)-propionic acid]
130 to 154.5 °C	O=C(N[C@H](Cc1ccc(Cl)cc1)C(=O)O)OCc1cc2cc(-c3ccc(F)cc3)ccc2o1 [Compound 118, (R)-3-(4-chloro-phenyl)-2-[5-(4-fluoro-phenyl)-benzofuran-2-ylmethoxycarbonylamino]-propionic acid]
150.6 to 160 °C	O=C(N[C@H](Cc1ccc(Br)cc1)C(=O)O)OCc1cc2cc(-c3ccc(F)cc3)ccc2o1 [Compound 119, (R)-3-(4-bromo-phenyl)-2-[5-(4-fluoro-phenyl)-benzofuran-2-ylmethoxycarbonylamino]-propionic acid]

melting point	SMILES
81.7 to 82.9 °C	O=C(N[C@H](Cc1cccc(F)c1)C(=O)O)OCc1cc2cc(-c3ccc(F)cc3)ccc2o1 [Compound 120, (R)-3-(3-fluoro-phenyl)-2-[5-(4-fluoro-phenyl)-benzofuran-2-ylmethoxycarbonylamino]-propionic acid]
98 to 101 °C	O=C(N[C@H](Cc1ccc(F)cc1)C(=O)O)OCc1cc2cc(-c3cc(F)ccc3F)ccc2o1 [Compound 121, (R)-2-[5-(2,5-difluoro-phenyl)-benzofuran-2-ylmethoxycarbonylamino]-3-(4-fluoro-phenyl)-propionic acid]
97 to 99.1 °C	O=C(N[C@H](Cc1ccc(F)cc1)C(=O)O)OCc1cc2cc(-c3ccc(F)c(F)c3)ccc2o1 [Compound 122, (R)-2-[5-(3,4-difluoro-phenyl)-benzofuran-2-ylmethoxycarbonylamino]-3-(4-fluoro-phenyl)-propionic acid]
174 to 175 °C	O=C(N[C@H](Cc1ccc(F)cc1)C(=O)O)OCc1cc2cc(-c3cc(F)cc(F)c3)ccc2o1 [Compound 123, (R)-2-[5-(3,5-difluoro-phenyl)-benzofuran-2-ylmethoxycarbonylamino]-3-(4-fluoro-phenyl)-propionic acid]
143 to 145.7 °C	O=C(N[C@H](Cc1ccccc1)C(=O)O)OCc1cc2cc(-c3cccnc3)ccc2o1 [Compound 124, (R)-3-phenyl-2-(5-pyridin-3-yl-benzofuran-2-ylmethoxycarbonylamino)-propionic acid]
67.7 to 68.2 °C	Cc1ccc(-c2cc(COC(=O)NC(Cc3ccccc3)C(=O)O)co2)cc1 (stereo not drawn) [Compound 127, 3-phenyl-2-(5-p-tolyl-furan-3-ylmethoxycarbonylamino)-propionic acid]
170.9 to 171.9 °C	O=C(N[C@@H](Cc1ccccc1)C(=O)O)OCCc1cc2cc(-c3ccccc3)ccc2o1 [Compound 128, (S)-3-phenyl-2-[2-(5-phenyl-benzofuran-2-yl)-ethoxycarbonylamino]-propionic acid]
165 to 215 °C	O=C(N[C@H](Cc1ccccc1)C(=O)O)OCc1ccc2[nH]c(-c3ccccc3)nc2c1 [Compound 129, (R)-3-Phenyl-2-(2-phenyl-1H-benzoimidazol-5-ylmethoxycarbonylamino)-propionic acid]
176 to 177 °C	Cn1c(-c2ccccc2)nc2cc(COC(=O)N[C@H](Cc3ccccc3)C(=O)O)ccc21 [Compound 130, (R)-2-(1-Methyl-2-phenyl-1H-benzoimidazol-5-ylmethoxycarbonylamino)-3-phenyl-propionic acid]
190 to 191 °C	O=C(N[C@H](Cc1ccccc1)C(=O)O)OCc1ccc2nc(-c3ccccc3)ccc2c1 [Compound 131, (R)-3-phenyl-2-(2-phenyl-quinolin-6-ylmethoxycarbonylamino)-propionic acid]
176 to 177 °C	O=C(N[C@H](Cc1ccccc1)C(=O)O)OCc1ccc2[nH]c(-c3ccccc3)cc2c1 [Compound 132, (R)-3-phenyl-2-(2-phenyl-1H-indol-5-ylmethoxycarbonylamino)-propionic acid]
165 to 168.5 °C	O=C(NC(Cc1ccccc1)C(=O)O)OCc1ccc(/C=C/c2ccccc2)cc1 (stereo not drawn) [Compound 133, 3-phenyl-2-[4-((E)-styryl)-benzyloxycarbonylamino]-propionic acid]
159.4 to 160.1 °C	O=C(N[C@H](Cc1ccccc1)C(=O)O)OCc1cc2cc(Cc3ccccc3)ccc2o1 [Compound 134, (R)-2-(5-benzyl-benzofuran-2-ylmethoxycarbonylamino)-3-phenyl-propionic acid]
136.3 to 138.6 °C	O=C(N[C@H](Cc1ccccc1)C(=O)O)OCc1cc2cc(C(=O)c3ccccc3)ccc2o1 [Compound 136, (R)-3-phenyl-2-[5-(1-phenyl-methanoyl)-benzofuran-2-ylmethoxycarbonylamino]-propionic acid]
90 to 95 °C	O=C(N[C@H](Cc1ccccc1)C(=O)O)OCc1cc2cc(-c3ccc4[nH]ccc4c3)ccc2o1 [Compound 138, (R)-2-[5-(1H-indol-5-yl)-benzofuran-2-ylmethoxycarbonylamino]-3-phenyl-propionic acid]
108.8 to 110.5 °C	O=C(N[C@H](Cc1ccccc1)C(=O)O)OCc1ccc2oc(Cc3ccccc3)cc2c1 [Compound 139, (R)-2-(2-benzyl-benzofuran-5-ylmethoxycarbonylamino)-3-phenyl-propionic acid]
201 to 204 °C	O=C(N[C@H](Cc1ccc(F)cc1)C(=O)O)OCc1ccc2oc(-c3ccc(F)cc3)cc2c1 [Compound 140, (R)-3-(4-fluoro-phenyl)-2-[2-(4-fluoro-phenyl)-benzofuran-5-ylmethoxycarbonylamino]-propionic acid]
65 to 74 °C	O=C(NC(Cc1ccc(F)cc1)C(=O)O)OCc1ccc(-c2ccc(O)cc2)cc1 (stereo not drawn) [Compound 142, 3-(4-fluoro-phenyl)-2-(4′-hydroxy-biphenyl-4-ylmethoxycarbonylamino)-propionic acid]
